Data taken from ChEMBL document CHEMBL5370531, “Design, synthesis and pharmacological evaluation of 2,3-dihydrobenzofuran IRAK4 inhibitors for the treatment of diffuse large B-cell lymphoma” (Eur J Med Chem, 2023).
The source made the active and inactive calls. No cut-off for these calls is given here.

Key:
OCI-Ly10 [1] = assay: Synergistic antiproliferative activity against human OCILY10 cells harboring MYD88 L265P assessed as inhibition of cell growth at 100 nM incubated for 72 hrs in presence of BTK inhibitor, ibrutinib at 1.6 nM by CCK-8 assay (reference value: 21.36 %); format: functional
OCI-Ly10 [2] = assay: Induction of apoptosis in human OCILY10 cells assessed as upregulation of PARP cleavage at 0.1 to 1 uM incubated for 24 hrs by immunoblotting analysis; format: functional, cell-based; details: dose 0.1-1 µM
[3] = target: Tyrosine-protein kinase BTK (Homo sapiens) (UniProt Q06187); assay: Inhibition of BTK (unknown origin) at 100 nM incubated for 1 hr in presence of ATP by ELISA analysis
[4] = target: Focal adhesion kinase 1 (Homo sapiens) (UniProt Q05397); assay: Inhibition of FAK (unknown origin) at 100 nM incubated for 1 hr in presence of ATP by ELISA analysis
OCI-Ly10 [5] = assay: Induction of apoptosis in human OCILY10 cells at 0.5 uM incubated for 48 hrs by Annexin V-FITC/PI staining based flow cytometry; format: functional
OCI-Ly10 [6] = assay: Synergistic antiproliferative activity against human OCILY10 cells harboring MYD88 L265P assessed as inhibition of cell growth at 200 nM incubated for 72 hrs in presence of BTK inhibitor, ibrutinib at 6.2 nM by CCK-8 assay (reference value: 26.07 %); format: functional
[7] = Cytotoxicity against human GM00637 cells assessed as inhibition of cell proliferation incubated for 72 hrs by CCK-8 assay; format: toxicity, cell-based
OCI-Ly10 [8] = assay: Induction of apoptosis in human OCILY10 cells assessed as upregulation of caspase-3 cleavage at 0.1 to 1 uM incubated for 48 hrs by immunoblotting analysis; format: functional, cell-based; details: dose 0.1-1 µM
[9] = target: Tyrosine-protein kinase ITK/TSK (Homo sapiens) (UniProt Q08881); assay: Inhibition of ITK (unknown origin) at 100 nM incubated for 1 hr in presence of ATP by ELISA analysis
[10] = target: Macrophage colony-stimulating factor 1 receptor (Homo sapiens) (UniProt P07333); assay: Inhibition of CSF1R (unknown origin) at 100 nM incubated for 1 hr in presence of ATP by ELISA analysis
OCI-Ly10 [11] = assay: Induction of apoptosis in human OCILY10 cells harboring MYD88 L265P assessed as upregulation of PARP cleavage at 0.2 uM in presence of BTK inhibitor, ibrutinib by immunoblotting analysis; format: functional, cell-based
[12] = target: Receptor tyrosine-protein kinase erbB-4 (Homo sapiens) (UniProt Q15303); assay: Inhibition of ERBB4 (unknown origin) at 100 nM incubated for 1 hr in presence of ATP by ELISA analysis
OCI-Ly10 [13] = assay: Induction of apoptosis in human OCILY10 cells assessed as late apoptotic cells at 0.5 uM incubated for 24 hrs by Annexin V-FITC/PI staining based flow cytometry (reference value: 3.71 %); format: functional
OCI-Ly10 [14] = assay: Induction of apoptosis in human OCILY10 cells assessed as late apoptotic cells at 0.1 uM incubated for 48 hrs by Annexin V-FITC/PI staining based flow cytometry (reference value: 3.54 %); format: functional
[15] = target: Vascular endothelial growth factor receptor 2 (Homo sapiens) (UniProt P35968); assay: Inhibition of VEGFR2 (unknown origin) at 100 nM incubated for 1 hr in presence of ATP by ELISA analysis
OCI-Ly10 [16] = assay: Induction of apoptosis in human OCILY10 cells harboring MYD88 L265P assessed as early apoptotic cells at 0.1 uM incubated for 48 hrs in presence of BTK inhibitor, ibrutinib by Annexin V-FITC/PI staining based flow cytometry (reference value: 6.76 %); format: functional
[17] = target: Mast/stem cell growth factor receptor Kit (Homo sapiens) (UniProt P10721); assay: Inhibition of C-kit (unknown origin) at 100 nM incubated for 1 hr in presence of ATP by ELISA analysis
OCI-Ly10 [18] = assay: Synergistic antiproliferative activity against human OCILY10 cells harboring MYD88 L265P assessed as inhibition of cell growth at 400 nM incubated for 72 hrs in presence of BTK inhibitor, ibrutinib at 3.1 nM by CCK-8 assay (reference value: 34.46 %); format: functional
OCI-Ly10 [19] = assay: Induction of apoptosis in human OCILY10 cells assessed as early apoptotic cells at 1 uM incubated for 48 hrs by Annexin V-FITC/PI staining based flow cytometry (reference value: 5.4 %); format: functional
[20] = target: Fibroblast growth factor receptor 4 (Homo sapiens) (UniProt P22455); assay: Inhibition of FGFR4 (unknown origin) at 100 nM incubated for 1 hr in presence of ATP by ELISA analysis
[21] = target: Interleukin-1 receptor-associated kinase 4 (Homo sapiens) (UniProt Q9NWZ3); assay: Inhibition of IRAK4 in human OCILY10 cells assessed as downregulation of IRAK4 phosphorylation level by immunoblotting analysis; format: cell-based
[22] = target: Fibroblast growth factor receptor 2 (Homo sapiens) (UniProt P21802); assay: Inhibition of FGFR2 (unknown origin) at 100 nM incubated for 1 hr in presence of ATP by ELISA analysis
OCI-Ly10 [23] = assay: Synergistic antiproliferative activity against human OCILY10 cells harboring MYD88 L265P assessed as inhibition of cell growth at 800 nM incubated for 72 hrs in presence of BTK inhibitor, ibrutinib at 6.2 nM by CCK-8 assay (reference value: 54.76 %); format: functional
OCI-Ly10 [24] = assay: Induction of apoptosis in human OCILY10 cells assessed as late apoptotic cells at 0.2 uM incubated for 24 hrs by Annexin V-FITC/PI staining based flow cytometry (reference value: 3.71 %); format: functional
OCI-Ly10 [25] = assay: Synergistic antiproliferative activity against human OCILY10 cells harboring MYD88 L265P assessed as inhibition of cell growth at 800 nM incubated for 72 hrs in presence of BTK inhibitor, ibrutinib at 1.6 nM by CCK-8 assay (reference value: 54.76 %); format: functional
[26] = target: Platelet-derived growth factor receptor beta (Homo sapiens) (UniProt P09619); assay: Inhibition of PDGFR-beta (unknown origin) at 100 nM incubated for 1 hr in presence of ATP by ELISA analysis
[27] = target: Receptor-type tyrosine-protein kinase FLT3 (Homo sapiens) (UniProt P36888); assay: Inhibition of FLT3 (unknown origin) at 100 nM incubated for 1 hr in presence of ATP by ELISA analysis relative to control
OCI-Ly10 [28] = assay: Synergistic antiproliferative activity against human OCILY10 cells harboring MYD88 L265P assessed as inhibition of cell growth at 100 nM incubated for 72 hrs in presence of BTK inhibitor, ibrutinib at 6.2 nM by CCK-8 assay (reference value: 21.36 %); format: functional
OCI-Ly10 [29] = assay: Induction of apoptosis in human OCILY10 cells harboring MYD88 L265P assessed as upregulation of caspase-3 cleavage at 0.1 uM in presence of BTK inhibitor, ibrutinib by immunoblotting analysis; format: functional, cell-based
U2932 = assay: Cytotoxicity against human U2932 cells assessed as inhibition of cell proliferation incubated for 72 hrs by CCK-8 assay; format: functional, cell-based; details: U2932, 72 h

Sequence of Receptor-type tyrosine-protein kinase FLT3 (Homo sapiens) (P36888 whole entry): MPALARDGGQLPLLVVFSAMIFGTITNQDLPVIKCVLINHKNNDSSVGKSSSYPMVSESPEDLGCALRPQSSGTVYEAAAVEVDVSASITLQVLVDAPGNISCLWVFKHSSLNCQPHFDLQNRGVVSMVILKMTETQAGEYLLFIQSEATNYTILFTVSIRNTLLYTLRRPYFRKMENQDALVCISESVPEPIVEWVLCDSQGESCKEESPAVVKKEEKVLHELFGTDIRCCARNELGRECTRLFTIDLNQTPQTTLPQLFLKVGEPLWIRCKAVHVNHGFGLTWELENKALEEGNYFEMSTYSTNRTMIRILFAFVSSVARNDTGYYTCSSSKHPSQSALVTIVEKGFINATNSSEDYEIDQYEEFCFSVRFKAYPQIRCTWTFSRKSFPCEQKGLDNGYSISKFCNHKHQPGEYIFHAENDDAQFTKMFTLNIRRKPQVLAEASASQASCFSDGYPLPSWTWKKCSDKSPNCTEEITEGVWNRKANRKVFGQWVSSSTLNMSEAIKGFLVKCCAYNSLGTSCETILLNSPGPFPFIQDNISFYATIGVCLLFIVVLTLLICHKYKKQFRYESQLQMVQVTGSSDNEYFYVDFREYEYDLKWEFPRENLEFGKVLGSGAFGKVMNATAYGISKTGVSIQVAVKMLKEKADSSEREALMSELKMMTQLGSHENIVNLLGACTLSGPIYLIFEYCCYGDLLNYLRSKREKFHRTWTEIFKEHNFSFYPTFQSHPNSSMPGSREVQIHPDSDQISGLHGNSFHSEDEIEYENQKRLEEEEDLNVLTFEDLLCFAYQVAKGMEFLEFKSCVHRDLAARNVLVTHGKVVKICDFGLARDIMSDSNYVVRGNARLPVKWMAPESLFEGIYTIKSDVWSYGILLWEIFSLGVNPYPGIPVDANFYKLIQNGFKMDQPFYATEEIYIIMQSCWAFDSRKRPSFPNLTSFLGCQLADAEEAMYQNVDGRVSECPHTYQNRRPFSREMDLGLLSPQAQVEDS
Sequence of Macrophage colony-stimulating factor 1 receptor (Homo sapiens) (P07333 whole entry): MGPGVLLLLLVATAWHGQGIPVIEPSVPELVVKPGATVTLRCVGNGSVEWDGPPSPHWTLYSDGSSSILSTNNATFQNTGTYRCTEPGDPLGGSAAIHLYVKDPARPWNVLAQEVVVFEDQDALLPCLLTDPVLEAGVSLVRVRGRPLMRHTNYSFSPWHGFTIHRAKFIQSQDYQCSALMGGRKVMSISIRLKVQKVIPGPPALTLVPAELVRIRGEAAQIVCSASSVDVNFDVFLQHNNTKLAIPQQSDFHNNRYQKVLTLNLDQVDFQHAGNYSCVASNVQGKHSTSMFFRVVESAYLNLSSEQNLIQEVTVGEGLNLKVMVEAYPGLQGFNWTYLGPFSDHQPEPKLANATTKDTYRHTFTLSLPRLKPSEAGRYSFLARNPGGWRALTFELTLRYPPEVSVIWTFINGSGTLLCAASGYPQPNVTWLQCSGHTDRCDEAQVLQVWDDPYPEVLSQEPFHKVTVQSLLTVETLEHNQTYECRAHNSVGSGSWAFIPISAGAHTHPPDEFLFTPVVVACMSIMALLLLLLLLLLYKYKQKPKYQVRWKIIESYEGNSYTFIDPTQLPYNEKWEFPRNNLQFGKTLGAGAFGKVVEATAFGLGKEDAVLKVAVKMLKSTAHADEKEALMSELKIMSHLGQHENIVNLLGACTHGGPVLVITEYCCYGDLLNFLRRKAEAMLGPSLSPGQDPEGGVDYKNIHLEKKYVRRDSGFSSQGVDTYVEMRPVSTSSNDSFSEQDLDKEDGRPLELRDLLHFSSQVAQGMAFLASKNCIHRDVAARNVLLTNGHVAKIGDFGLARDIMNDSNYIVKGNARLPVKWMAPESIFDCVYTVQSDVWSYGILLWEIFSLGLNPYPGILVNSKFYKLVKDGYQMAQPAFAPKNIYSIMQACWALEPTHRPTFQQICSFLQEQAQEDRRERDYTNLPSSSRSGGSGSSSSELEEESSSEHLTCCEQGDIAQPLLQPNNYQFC
Sequence of Interleukin-1 receptor-associated kinase 4 (Homo sapiens) (Q9NWZ3 whole entry): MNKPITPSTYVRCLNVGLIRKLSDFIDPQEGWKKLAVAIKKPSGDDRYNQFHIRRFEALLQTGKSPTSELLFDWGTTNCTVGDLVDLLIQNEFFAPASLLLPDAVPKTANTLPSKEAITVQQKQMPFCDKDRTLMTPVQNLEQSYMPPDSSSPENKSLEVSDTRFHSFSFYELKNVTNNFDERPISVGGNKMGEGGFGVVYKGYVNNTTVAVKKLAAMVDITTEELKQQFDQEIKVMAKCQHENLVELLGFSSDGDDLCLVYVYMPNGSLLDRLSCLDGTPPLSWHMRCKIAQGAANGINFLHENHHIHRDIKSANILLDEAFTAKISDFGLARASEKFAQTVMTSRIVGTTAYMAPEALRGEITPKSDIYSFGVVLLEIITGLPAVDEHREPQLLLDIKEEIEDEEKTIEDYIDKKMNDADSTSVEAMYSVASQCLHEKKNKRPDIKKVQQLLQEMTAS
Sequence of Tyrosine-protein kinase ITK/TSK (Homo sapiens) (Q08881 whole entry): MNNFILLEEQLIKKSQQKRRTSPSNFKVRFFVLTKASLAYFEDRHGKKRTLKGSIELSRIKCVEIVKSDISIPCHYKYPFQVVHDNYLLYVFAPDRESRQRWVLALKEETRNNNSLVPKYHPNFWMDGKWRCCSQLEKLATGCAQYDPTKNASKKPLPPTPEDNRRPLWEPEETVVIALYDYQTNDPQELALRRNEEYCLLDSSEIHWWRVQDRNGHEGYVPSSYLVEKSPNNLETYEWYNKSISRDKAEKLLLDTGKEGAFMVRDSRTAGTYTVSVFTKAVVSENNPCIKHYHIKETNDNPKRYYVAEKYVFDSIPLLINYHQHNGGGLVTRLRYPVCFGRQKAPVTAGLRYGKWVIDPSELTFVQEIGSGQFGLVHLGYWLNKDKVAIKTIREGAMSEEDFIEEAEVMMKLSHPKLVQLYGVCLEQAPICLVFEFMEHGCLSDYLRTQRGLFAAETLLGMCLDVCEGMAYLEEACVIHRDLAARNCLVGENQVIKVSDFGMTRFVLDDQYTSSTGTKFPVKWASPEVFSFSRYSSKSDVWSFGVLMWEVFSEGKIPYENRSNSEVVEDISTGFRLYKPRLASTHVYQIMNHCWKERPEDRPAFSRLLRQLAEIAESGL
Sequence of Tyrosine-protein kinase BTK (Homo sapiens) (Q06187 whole entry): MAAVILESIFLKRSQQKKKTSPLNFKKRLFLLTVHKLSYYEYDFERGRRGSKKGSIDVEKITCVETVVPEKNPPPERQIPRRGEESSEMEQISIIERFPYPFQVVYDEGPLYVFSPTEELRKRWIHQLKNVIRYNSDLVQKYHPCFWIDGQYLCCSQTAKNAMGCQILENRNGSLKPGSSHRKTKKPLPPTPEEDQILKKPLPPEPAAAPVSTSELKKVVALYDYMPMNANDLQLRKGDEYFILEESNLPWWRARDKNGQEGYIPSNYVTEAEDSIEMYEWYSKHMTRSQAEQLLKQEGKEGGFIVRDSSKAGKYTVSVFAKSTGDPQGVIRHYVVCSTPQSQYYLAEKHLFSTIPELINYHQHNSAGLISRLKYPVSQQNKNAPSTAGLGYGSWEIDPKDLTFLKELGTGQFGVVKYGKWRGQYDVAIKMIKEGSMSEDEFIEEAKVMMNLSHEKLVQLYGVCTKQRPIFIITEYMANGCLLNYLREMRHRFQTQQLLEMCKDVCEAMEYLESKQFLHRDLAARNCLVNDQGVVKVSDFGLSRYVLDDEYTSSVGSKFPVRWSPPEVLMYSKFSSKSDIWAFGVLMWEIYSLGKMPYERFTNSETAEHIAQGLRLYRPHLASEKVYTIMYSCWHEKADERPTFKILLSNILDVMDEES
Sequence of Mast/stem cell growth factor receptor Kit (Homo sapiens) (P10721 whole entry): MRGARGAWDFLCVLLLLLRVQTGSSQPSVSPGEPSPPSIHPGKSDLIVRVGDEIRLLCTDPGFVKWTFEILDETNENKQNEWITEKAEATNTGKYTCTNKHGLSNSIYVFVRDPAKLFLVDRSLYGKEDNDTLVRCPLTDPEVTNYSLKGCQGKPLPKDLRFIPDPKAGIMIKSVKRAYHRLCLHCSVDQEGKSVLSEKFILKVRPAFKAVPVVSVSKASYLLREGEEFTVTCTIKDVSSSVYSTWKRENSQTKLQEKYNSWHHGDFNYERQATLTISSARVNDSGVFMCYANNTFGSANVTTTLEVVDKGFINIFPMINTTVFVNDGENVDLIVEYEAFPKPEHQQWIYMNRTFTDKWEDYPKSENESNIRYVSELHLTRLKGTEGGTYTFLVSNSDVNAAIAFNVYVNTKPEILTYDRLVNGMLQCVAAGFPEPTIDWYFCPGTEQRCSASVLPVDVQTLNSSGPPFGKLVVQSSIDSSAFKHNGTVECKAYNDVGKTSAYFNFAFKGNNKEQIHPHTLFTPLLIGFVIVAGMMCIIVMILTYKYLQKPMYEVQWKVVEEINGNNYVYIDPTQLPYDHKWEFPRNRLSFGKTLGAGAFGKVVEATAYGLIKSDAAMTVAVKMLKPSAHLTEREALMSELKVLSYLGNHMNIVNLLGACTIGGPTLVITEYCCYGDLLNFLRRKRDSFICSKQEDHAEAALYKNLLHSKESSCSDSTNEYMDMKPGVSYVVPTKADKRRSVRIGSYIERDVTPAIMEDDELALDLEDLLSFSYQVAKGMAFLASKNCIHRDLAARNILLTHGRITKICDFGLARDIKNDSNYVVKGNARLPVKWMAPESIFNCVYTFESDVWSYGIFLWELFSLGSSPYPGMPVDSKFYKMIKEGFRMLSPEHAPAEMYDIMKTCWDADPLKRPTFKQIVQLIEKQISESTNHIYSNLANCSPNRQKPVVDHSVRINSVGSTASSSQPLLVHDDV

With `Cn1cc(-c2cc3c(cc2NC(=O)c2coc(-c4ccnc(N)c4)n2)CC(C)(C)O3)cn1` the inhibition at 0.1 µM (OCI-Ly10 [1]) was 23.7%, the Activity (OCI-Ly10 [2]) was “Active” and the inhibition [3] was “inactive”. For the same compound, the inhibition [4] was “inactive”, the Activity (OCI-Ly10 [5]) was 67.2% and the inhibition at 0.2 µM (OCI-Ly10 [6]) was 53.8%. The IC50 at 72 h [7] was 1.52 µM, the Activity (OCI-Ly10 [8]) was “Active” and the inhibition [9] was “inactive”. The inhibition [10] was “inactive”, the Activity (OCI-Ly10 [11]) was “Active” and the inhibition [12] was “inactive”. The Activity (OCI-Ly10 [13]) was 25.2%, the Activity (OCI-Ly10 [14]) was 7.93% and the inhibition [15] was “inactive”. For the same compound, the Activity (OCI-Ly10 [16]) was 14.2%, the inhibition [17] was “inactive” and the inhibition at 0.4 µM (OCI-Ly10 [18]) was 42.3%. For the same compound, the Activity (OCI-Ly10 [19]) was 54.4%, the inhibition [20] was “inactive” and the inhibition [21] was “Dose-Dependent Effect”. The inhibition [22] was “inactive”, the inhibition at 0.8 µM (OCI-Ly10 [23]) was 83.3% and the Activity (OCI-Ly10 [24]) was 11.8%. The inhibition at 0.8 µM (OCI-Ly10 [25]) was 58.1%, the inhibition [26] was “inactive” and the inhibition [27] was > 50%. The inhibition at 0.1 µM (OCI-Ly10 [28]) was 44.9%, the Activity (OCI-Ly10 [29]) was “Active” and the IC50 (U2932) was 1.25 µM.
